Experimental data reported in ChEMBL document CHEMBL3507680, “University of Dundee, Gates Library screen for HepG2 cell viability”.

Experiment: Human HepG2 cell viability assay in 384 well format
Format: toxicity, cell-based
Set-up: dose 125 nL, time 70.5 hour; concentration not given beside the values
Conditions: HepG2 cells, read-out: Inhibition

| SMILES | cytotoxicity at 70.5 h [%] |
| --- | --- |
| COCCO[C@H]1CCN(C(=O)c2ccco2)[C@H]1Cc1cnn(C)c1 | -90.2 |
| OCc1nnn2c1CN(Cc1cccnc1)CCC2 | -115 |
| CCc1ccc(NC(=O)N2C[C@H]3CC[C@@]4(N=C(C)N(C)C4=O)[C@H]3C2)cc1 | 44.3 |
| CS(=O)(=O)N1C[C@@H]2COC[C@H](C(=O)Nc3cnccn3)[C@@H]2C1 | 59.3 |
| C[C@H]1C[C@@H]2CCN(C(=O)c3cnccn3)C[C@H]2O1 | -8.48 |
| C[C@H]1C[C@@H]2CCN(C(=O)c3ccccn3)C[C@H]2O1 | -2.22 |
| C[C@@H]1C[C@H]2CN(C(=O)c3ccncn3)C[C@H]2O1 | -14.1 |
| CC(C)C(=O)N1CCN(C(=O)N(C)C)CC2(CC(=O)N(C)C2)C1 (configuration not stated) | 37.2 |
| Cc1ccc(CNC(=O)c2nn(C)c3c2CS(=O)(=O)CC3)o1 | -2.5 |
| Cn1nc(C(=O)NCc2cccs2)c2c1CCS(=O)(=O)C2 | -6.12 |
| COc1ccccc1C(=O)Nc1c(F)c(C(=O)N2CCCC2)nn1C | -0.747 |
| Cn1nc(C(=O)N2CCCC2)c(F)c1NC(=O)Cc1ccccc1 | 28.2 |
| CC(C)CNC(=O)c1nn(C)c(NC(=O)Cc2ccccc2)c1F | -9.39 |
| O=C(CSc1ccccn1)NCc1ccc2c(c1)CCC(=O)N2 | 40.7 |
| CCOCCNS(=O)(=O)c1cc(C)c2nc(O)cc(C)c2c1 | 21 |
| Cc1nnc(SCC(=O)NCc2ccc3c(c2)CCC(=O)N3)n1C | -3 |
| COc1cccc(OCCNS(=O)(=O)Cc2ccccc2)c1 | 19.4 |
| Cc1cccc(N(C)Cc2cc(=O)n3oc(C)cc3n2)c1 | 3.47 |
| Cc1cc2nc(CN(C)c3ccc(Cl)cc3)cc(=O)n2o1 | 22 |

| SMILES | cytotoxicity at 70.5 h [%] |
| --- | --- |
| O=C1CNc2ncnc(N3CCN(Cc4ccccc4F)CC3)c2N1 | -7.69 |
| Cc1nn(CCNc2ncnc3c2NC(=O)CN3)c(C)c1Cl | -8.12 |
| Cc1cc(C)n(CCNc2ncnc3c2NC(=O)CN3)n1 | -15.7 |
| O=C1CNc2ncnc(Nc3cnn(Cc4ccccc4F)c3)c2N1 | 27.9 |
| COc1ccc(C(C)Nc2ncnc3c2NC(=O)CN3)cc1 (configuration not stated) | -14.1 |
| COc1cccc(C(C)Nc2ncnc3c2NC(=O)CN3)c1 (configuration not stated) | 11 |
| Cc1ccccc1CN1CCN(c2ncnc3c2NC(=O)CN3)CC1 | -8.36 |
| O=C1CNc2ncnc(NCc3cccs3)c2N1 | -5.96 |
| O=C1CNc2ncnc(N3CCN(Cc4ccccc4)CC3)c2N1 | 12.6 |
| COc1ccc(CNc2ncnc3c2NC(=O)CN3)cc1 | -6.06 |
| CCCc1noc(C2CCN(S(=O)(=O)c3cccs3)CC2)n1 | -2.96 |
| CC(C)c1noc(C2CCN(C(=O)c3cccs3)CC2)n1 | -5.14 |
| CCS(=O)(=O)N1CCCCC1c1nc(C)no1 (configuration not stated) | -5.51 |
| CCCc1noc(C2CCCCN2C(=O)C2CCCC2)n1 (configuration not stated) | 32.2 |
| c1ccc2c(N3CCSCC3)cnnc2c1 | -3.97 |
| CC1(C)CC(N2Cc3nc(N4CCCC4)ncc3C2=O)CC(C)(C)N1 | -13.5 |
| CCS(=O)(=O)N1CCCCC1c1nc(CC(C)C)no1 (configuration not stated) | -8.14 |
| CCc1noc(C2CCCCN2C(=O)c2sccc2C)n1 (configuration not stated) | 12.2 |
| CCCc1noc(C2CCN(C(=O)CCn3nc(C)cc3C)CC2)n1 | -7 |

| SMILES | cytotoxicity at 70.5 h [%] |
| --- | --- |
| Cc1nn(C)c2cn(CC(=O)NC3CCSCC3)nc12 | -0.476 |
| COCCNC(=O)Cn1cc2c(n1)c(C)nn2C | -9.77 |
| Cc1cc2[nH]c(O)nc2cc1NCc1ccccc1 | -12.7 |
| CC1CCC(N2Cc3nc(N)ncc3C2=O)CC1 (configuration not stated) | -12.4 |
| CCc1noc(C2CCCCN2C(=O)c2cc(C)oc2C)n1 (configuration not stated) | 11.6 |
| Cc1ccc(CN(C)CC2(O)CCCN(C)C2)o1 (configuration not stated) | -2.94 |
| CCn1nc(C)c2nn(CC(=O)NC3CCSCC3)cc21 | 6.6 |
| Cc1nc2[nH]cnc(Nc3ccn(C)n3)c-2n1 | -4.89 |
| Cn1cc(N2Cc3nc(N4CCOCC4)ncc3C2=O)cn1 | -6.6 |
| CCn1cc(N2Cc3nc(N4CCCC4)ncc3C2=O)cn1 | 0.0553 |
| O=C(NCCCn1cccn1)c1nnc2ccccc2n1 | 2.8 |
| CCn1nc(C)c(CNC(=O)c2nnc3ccc(OC)cc3n2)c1C | -3.67 |
| COc1ccc2nnc(C(=O)NCC3CCCC3)nc2c1 | -4.54 |
| C=CNC(=O)c1nnc2ccc(N3CCOCC3)cc2n1 | -10.8 |
| CN(C)c1ncc2c(n1)CN(C1CC(C)(C)NC(C)(C)C1)C2=O | -6.77 |
| CC1CCN(c2ncc3c(n2)CN(Cc2cccc(F)c2)C3=O)CC1 | -0.149 |
| CCn1nc(C)c(NC(=O)c2cc(NC(=O)C3CC3)n(C)n2)c1C | -5.29 |
| Cc1ccc(CNC(=O)c2cc(NC(=O)C3CC3)n(C)n2)o1 | -7.15 |
| CCn1nccc1CNc1nc(N)nc2c1nc(C)n2C | 6.56 |
